Data published in the supplement of paper PMC10307832.

Assays:
Experiment in all cases: relative viability (nuclei count vs DMSO), 5 days (fraction); higher = more cells survive
LU99A = system: LU99A
Method in brief: (§1)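 Relative viability divides the nuclei count in treated wells by that in vehicle wells. Lung cancer cell lines were seeded in 1536-well plates, dosed by pin tool the next day, and fixed and stained after 5 days in one step with final 0.05% Triton X-100, 1% formaldehyde and 1 ug/ml Hoechst. Dosing was a single drug or a fixed anchor-drug dose plus five library-drug doses (not always all listed) in √10 steps, and values are medians of duplicate plates imaged at 4×.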

NCI-H1355 = system: NCI-H1355
Method in brief: as §1

EPLC-272H = system: EPLC-272H
Method in brief: as §1

HCC-827 = system: HCC-827
Method in brief: as §1

UMC-11 = system: UMC-11
Method in brief: as §1

PC-3 [JPC-3] = system: PC-3 [JPC-3]
Method in brief: as §1

LK-2 = system: LK-2
Method in brief: as §1

SW 1573 = system: SW 1573
Method in brief: as §1

H3255 = system: H3255
Method in brief: as §1

SK-LU-1 = system: SK-LU-1
Method in brief: as §1

NCI-H441 = system: NCI-H441
Method in brief: as §1

NCI-H2405 = system: NCI-H2405
Method in brief: as §1

LXF-289 = system: LXF-289
Method in brief: as §1

NCI-H2228 = system: NCI-H2228
Method in brief: as §1

NCI-H1993 = system: NCI-H1993
Method in brief: as §1

LCLC-97TM1 = system: LCLC-97TM1
Method in brief: as §1

HOP-62 = system: HOP-62
Method in brief: as §1

EKVX = system: EKVX
Method in brief: as §1

NCI-H3122 = system: NCI-H3122
Method in brief: as §1

`Cc1csc(=NC2CCCCC2)n1/N=C/c1ccc(O)c(O)c1O` [MIM1] + C[C@]1(O)C[C@@H](c2nc(-c3ccc4ccc(-c5ccccc5)nc4c3)c3c(N)nccn32)C1 [Linsitinib] (partner 1 µM) was tested, and the relative viability (LU99A; first compound 0.2 µM) was 0.528, the relative viability (LU99A; first compound 0.6325 µM) was 0.57 and the relative viability (LU99A; first compound 2 µM) was 0.489. The relative viability (LU99A; first compound 6.325 µM) was 0.545, the relative viability (LU99A; first compound 20 µM) was 0.284 and the relative viability (NCI-H1355; first compound 0.2 µM) was 0.812. The relative viability (NCI-H1355; first compound 0.6325 µM) was 0.882, the relative viability (NCI-H1355; first compound 2 µM) was 0.898 and the relative viability (NCI-H1355; first compound 6.325 µM) was 0.74. For the same molecule, the relative viability (NCI-H1355; first compound 20 µM) was 0.879, the relative viability (EPLC-272H; first compound 0.2 µM) was 1.06 and the relative viability (EPLC-272H; first compound 0.6325 µM) was 1.15. For the same molecule, the relative viability (EPLC-272H; first compound 2 µM) was 1.17, the relative viability (EPLC-272H; first compound 6.325 µM) was 1.26 and the relative viability (EPLC-272H; first compound 20 µM) was 0.988. For the same molecule, the relative viability (HCC-827; first compound 0.2 µM) was 0.955, the relative viability (HCC-827; first compound 0.6325 µM) was 0.971 and the relative viability (HCC-827; first compound 2 µM) was 0.959. The relative viability (HCC-827; first compound 6.325 µM) was 0.387, the relative viability (HCC-827; first compound 20 µM) was 0.741 and the relative viability (UMC-11; first compound 0.2 µM) was 1.02. It also gave a relative viability (UMC-11; first compound 0.6325 µM) of 1.01, a relative viability (UMC-11; first compound 2 µM) of 1.02 and a relative viability (UMC-11; first compound 6.325 µM) of 0.66. For the same molecule, the relative viability (UMC-11; first compound 20 µM) was 0.233, the relative viability (PC-3 [JPC-3]; first compound 0.2 µM) was 0.946 and the relative viability (PC-3 [JPC-3]; first compound 0.6325 µM) was 0.952. The relative viability (PC-3 [JPC-3]; first compound 2 µM) was 1, the relative viability (PC-3 [JPC-3]; first compound 6.325 µM) was 0.805 and the relative viability (PC-3 [JPC-3]; first compound 20 µM) was 0.845. The relative viability (LK-2; first compound 0.2 µM) was 0.801, the relative viability (LK-2; first compound 0.6325 µM) was 0.631 and the relative viability (LK-2; first compound 2 µM) was 0.519. For the same molecule, the relative viability (LK-2; first compound 6.325 µM) was 0.566, the relative viability (LK-2; first compound 20 µM) was 0.179 and the relative viability (SW 1573; first compound 0.2 µM) was 0.872. It also gave a relative viability (SW 1573; first compound 0.6325 µM) of 0.792, a relative viability (SW 1573; first compound 2 µM) of 0.678 and a relative viability (SW 1573; first compound 6.325 µM) of 0.767. It also gave a relative viability (SW 1573; first compound 20 µM) of 0.607, a relative viability (H3255; first compound 0.2 µM) of 0.901 and a relative viability (H3255; first compound 0.6325 µM) of 0.918. It also gave a relative viability (H3255; first compound 2 µM) of 0.883, a relative viability (H3255; first compound 6.325 µM) of 0.637 and a relative viability (H3255; first compound 20 µM) of 0.406. The relative viability (SK-LU-1; first compound 0.2 µM) was 1.12, the relative viability (SK-LU-1; first compound 0.6325 µM) was 1.26 and the relative viability (SK-LU-1; first compound 2 µM) was 1.29. The relative viability (SK-LU-1; first compound 6.325 µM) was 1.03, the relative viability (SK-LU-1; first compound 20 µM) was 0.996 and the relative viability (NCI-H441; first compound 0.2 µM) was 0.612. It also gave a relative viability (NCI-H441; first compound 0.6325 µM) of 0.528, a relative viability (NCI-H441; first compound 2 µM) of 0.543 and a relative viability (NCI-H441; first compound 6.325 µM) of 0.709. For the same molecule, the relative viability (NCI-H441; first compound 20 µM) was 0.145, the relative viability (NCI-H2405; first compound 0.2 µM) was 0.906 and the relative viability (NCI-H2405; first compound 0.6325 µM) was 1.08. The relative viability (NCI-H2405; first compound 2 µM) was 0.946, the relative viability (NCI-H2405; first compound 6.325 µM) was 0.778 and the relative viability (NCI-H2405; first compound 20 µM) was 0.742. The relative viability (LXF-289; first compound 0.2 µM) was 0.943, the relative viability (LXF-289; first compound 0.6325 µM) was 0.923 and the relative viability (LXF-289; first compound 2 µM) was 0.943. The relative viability (LXF-289; first compound 6.325 µM) was 0.787, the relative viability (LXF-289; first compound 20 µM) was 0.624 and the relative viability (NCI-H2228; first compound 0.2 µM) was 0.752. It also gave a relative viability (NCI-H2228; first compound 0.6325 µM) of 0.638, a relative viability (NCI-H2228; first compound 2 µM) of 0.877 and a relative viability (NCI-H2228; first compound 6.325 µM) of 0.217. It also gave a relative viability (NCI-H2228; first compound 20 µM) of 0.208, a relative viability (NCI-H1993; first compound 0.2 µM) of 0.736 and a relative viability (NCI-H1993; first compound 0.6325 µM) of 0.715. The relative viability (NCI-H1993; first compound 2 µM) was 0.63, the relative viability (NCI-H1993; first compound 6.325 µM) was 0.68 and the relative viability (NCI-H1993; first compound 20 µM) was 0.646. The relative viability (LCLC-97TM1; first compound 0.2 µM) was 0.171, the relative viability (LCLC-97TM1; first compound 0.6325 µM) was 0.226 and the relative viability (LCLC-97TM1; first compound 2 µM) was 0.166. The relative viability (LCLC-97TM1; first compound 6.325 µM) was 0.207, the relative viability (LCLC-97TM1; first compound 20 µM) was 0.214 and the relative viability (HOP-62; first compound 0.2 µM) was 0.977. The relative viability (HOP-62; first compound 0.6325 µM) was 1.04, the relative viability (HOP-62; first compound 2 µM) was 0.905 and the relative viability (HOP-62; first compound 6.325 µM) was 0.658. It also gave a relative viability (HOP-62; first compound 20 µM) of 0.936, a relative viability (EKVX; first compound 0.2 µM) of 1.03 and a relative viability (EKVX; first compound 0.6325 µM) of 0.867. The relative viability (EKVX; first compound 2 µM) was 0.958, the relative viability (EKVX; first compound 6.325 µM) was 0.631 and the relative viability (EKVX; first compound 20 µM) was 0.667. For the same molecule, the relative viability (NCI-H3122; first compound 0.2 µM) was 0.959, the relative viability (NCI-H3122; first compound 0.6325 µM) was 1.08 and the relative viability (NCI-H3122; first compound 2 µM) was 1.12. It also gave a relative viability (NCI-H3122; first compound 6.325 µM) of 0.926 and a relative viability (NCI-H3122; first compound 20 µM) of 0.396.
